Laboratory results: paper PMC7997574, “Lead Optimization of Benzoxazolone Carboxamides as Orally Bioavailable and CNS Penetrant Acid Ceramidase Inhibitors” (Journal of Medicinal Chemistry, 2020)
Where “and” joins values, the source holds several entries; their conditions need not be identical. Equal entries are not always repeated.

What was measured:
[1] = In vitro microsomal stability study; format: in vitro ADME; settings: mouse liver microsomes
In short: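 Test compound at 4.6 μM final was incubated at 37 °C with mouse liver microsomes in 0.1 M Tris HCl (pH 7.4), with an NADPH/G6P/G6PDH/MgCl2 cofactor system, and sampled at 0–60 min. Parent remaining relative to t = 0 was measured by LC/MS/MS. t1/2 came from one-phase decay regression, as the mean of at least two independent experiments.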

GluSph (d18:1) = assay: Brain GluSph levels in 4L;C* mice (neuropathic Gaucher's disease model); format: in vivo, mouse
Description: 4L;C* mice (C57BL/6 J/129SvEV) were randomly assigned to three treatment groups (N = 4–8 with mixed males and females) and dosed once a day i.p. with 90 or 30 mg kg^–1 of 22m or vehicle. Treatment started at 5 days of age for a duration of 14 days. The application volume was set to 10 μL per gram of body weight, and dosage was adjusted accordingly. Animals of all groups were sacrificed 1 h after the last dose, and the brain tissues and plasma were collected. The left brain containing cortex, cerebella, thalamus, and brainstem was analyzed for SphL levels by MS. Data were analyzed using the Student t test. The right brain containing cortex, cerebella, thalamus, and brainstem and plasma were analyzed for drug levels of 22m. All mice were housed under pathogen-free conditions in the animal facility, and animal experiment was performed according to the IACUC approved protocol (2018-0056) at Cincinnati Children’s Hospital Research Foundation. Wild Type (WT) (GALC+/+) and Twitcher (Twi) (GALC–/−) mice were genotyped by PCR as previously described.[58] […] The left brain containing cortex, cerebella, thalamus, and brainstem was analyzed for SphL levels by MS. Data were analyzed using the Student t test. The right brain containing cortex, cerebella, thalamus, and brainstem and plasma were analyzed for drug levels of 22m. […]

Compound: CC(C)CNC(=O)n1c(=O)oc2cc(C3CCN(C)CC3)ccc21 [22m, N-Isobutyl-6-(1-methyl-4-piperidyl)-2-oxo-1,3-benzoxazole-3-carboxamide]
- m-LM [% at 60 min] ([1]; % remaining at 60 min): 76% and 80%
- half-life at 4.6 μM ([1]; pH 7.4, read-out: m-LM t1/2): > 1 h
- effect on brain GluSph (d18:1) (GluSph (d18:1); 30 and 90 mg kg^–1 i.p. once a day for 14 days): significantly reduces GluSph (d18:1) in the brain of 4L;C* mice in a dose-dependent manner
- reduction of the GluSph levels relative to control (GluSph (d18:1); brain, 90 mg kg^–1 i.p. once a day for 14 days): 54%
